# Source: patent US6303591A, “21-hydroxy-6,19-oxidoprogesterone (21OH-6OP) and its use as medicament for treating excess of glucocorticoids” (Applied Research Systems ARS Holding NV, priority 1997, dated 2001)
# “Also recorded” adds a separate entry of the source.
# Experiments:
# [1] = tested on: TAT induction in hepatocytes (GR); assay: antagonism of TAT induction by DXM or B in hepatocytes; type: cell-based, rat
# Method: (§1) Hatched bars represent incubations performed in the presence of vehicle instead of agonist.
# (§2) Bioassay : Liver glycogen deposition was measured on adrenalectoniized male Sprague-Dawley rats (180-220 g) as follows: steroids were dissolved in ethanol/propylene glycol/0.9% NaCl solution (3:3:34) and 100 μg steroid/l00 g body weight were injected i.m. the previous night. On the morning of the experiment this dose was reinjected intraperitoneally. Three hours later the rats were killed by cervical dislocation and livers were immediately removed. Glycogen purification and quantification were carried out according to Krisman's method (17). Na^+ -retaining properties were measured as described (5). Tyrosine aminotransferase (TAT) was induced in rat hepatocytes isolated by the procedure of Fry et al (18). TAT activity was determined according to Granner and Tomkins (19).
# (§3) The basal TAT activity in hepatocytes, denominated control in the figure, was measured by adding vehicle (final concentration: 0.2% ethanol) to the culture. […] 2.5 μM 21OH-6OP inhibits 80% of TAT induction when concubated with B or DXM.
# [2] = target: T1, MR from rat kidney (kidney cytosol) (Rattus norvegicus, UniProt P22199); assay: competition with (^3 H)-ALDO for MR, rat kidney cytosol; type: binding
# T1 sequence (P22199 1-981): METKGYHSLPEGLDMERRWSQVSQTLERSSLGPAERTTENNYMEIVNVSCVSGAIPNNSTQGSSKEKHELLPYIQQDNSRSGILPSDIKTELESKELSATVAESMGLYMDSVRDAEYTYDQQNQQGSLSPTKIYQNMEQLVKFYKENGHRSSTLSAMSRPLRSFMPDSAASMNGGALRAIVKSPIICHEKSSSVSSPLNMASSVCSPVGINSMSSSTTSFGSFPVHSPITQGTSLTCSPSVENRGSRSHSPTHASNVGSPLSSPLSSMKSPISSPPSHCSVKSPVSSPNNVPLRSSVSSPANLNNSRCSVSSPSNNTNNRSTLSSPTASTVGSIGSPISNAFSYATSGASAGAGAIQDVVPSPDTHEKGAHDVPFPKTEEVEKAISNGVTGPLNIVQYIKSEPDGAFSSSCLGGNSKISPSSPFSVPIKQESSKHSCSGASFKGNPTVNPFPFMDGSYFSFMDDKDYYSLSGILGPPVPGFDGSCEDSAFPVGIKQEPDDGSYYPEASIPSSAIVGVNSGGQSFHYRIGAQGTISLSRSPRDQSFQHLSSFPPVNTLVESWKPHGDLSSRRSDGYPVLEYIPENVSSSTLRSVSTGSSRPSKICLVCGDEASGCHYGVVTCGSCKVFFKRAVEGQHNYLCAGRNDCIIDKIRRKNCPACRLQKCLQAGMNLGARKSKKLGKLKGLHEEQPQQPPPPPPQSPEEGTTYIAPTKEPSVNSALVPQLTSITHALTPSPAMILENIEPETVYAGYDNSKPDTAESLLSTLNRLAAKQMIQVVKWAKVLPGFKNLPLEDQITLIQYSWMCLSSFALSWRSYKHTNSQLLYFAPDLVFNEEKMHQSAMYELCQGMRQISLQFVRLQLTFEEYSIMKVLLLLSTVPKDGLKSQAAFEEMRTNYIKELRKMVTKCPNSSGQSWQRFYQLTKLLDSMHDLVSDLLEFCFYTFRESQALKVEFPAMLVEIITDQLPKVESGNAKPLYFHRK
# Method: Binding Assay: Adrenalectomized male Sprague-Dawley rats were bled to death by heart puncture. Cold 0.9% NaCI was injected profusely through the aorta until organs were completely blanched. Thymuses were used as a source of GR and kidneys as a source of MR. Homogenization and incubation conditions were performed as previously described, (14) and (15), respectively. Briefly, homogenates performed in cold TEGM buffer at pH 7.4 (0.1 M Tris-HCl, 10 mM EDTA, 10 mM α-mercaptoethanol, 20 mM Na2 MoO4, 25% glycerol, 0.1 mM PMSF, 2.0 TIU/ml aprotinin and 1 mg% Leupeptin) were centrifuged at 37,000 rev. for 30 min at 0° C. Supernatants from this centrifugation are referred to as "cytosol". […] (^3 H)-P4 binding to uterus PR was assayed on immature female rats according to Jordan et al (16).
# Relative binding affinity (RBA) for partially purified CBG was determined by steroid competition for (^3 H)-B binding as described previously (14).
# The displacement curve of 6,19-oxidoprogesterone is included for comparative purposes.
# [3] = tested on: Na^+ retention (sodium-excretion rate); assay: Na^+ -retaining activity, adrenalectomized rats; type: in vivo, rat
# Method: (§4) FIG. 3: Biological Properties of 21OH-6OP: A) Glycogen storage in vivo: 100 μg steroid/100 g body weight of male rats were injected as indicated in Example 1. Liver glycogen was purified and quantified with Krisman's reagent (17). Controls were injected with vehicle. Results are expressed as means±SEM (n=6). (*): different from controls P<0.02. B) TAT induction in vitro: rat hepatocytes were incubated for 5 h in HAM-F12 medium in the presence of 100 nM steroid and TAT activity was measured. Results are expressed as percentage of enzyme activity (means±SEM, n=4) over controls incubated in the presence of vehicle. (*) different from controls P<0.01. C) Sodium-retaining activity: adrenalectomized rats were treated with the indicated dose of steroids. Results are expressed as the ratio of sodium-excretion rates of steroid-injected animals to the excretion rates of rats injected with vehicle.
# as §2
# [4] = tested on: tyrosine aminotransferase (TAT) induction in rat hepatocytes; assay: TAT induction in rat hepatocytes (agonism); type: cell-based; details: FIGS. 3-B and 4 (hatched bars), no agonist added
# Method: as §4, §1, §2, §3
structure (smiles),measurement,setting,value
"C[C@]12CC[C@H]3[C@@H](C[C@H]4OC[C@@]35CCC(=O)C=C45)[C@@H]1CC[C@@H]2C(=O)CO [21OH-6OP, 21-hydroxy-6,19-oxidoprogesterone]",inhibition of TAT induction by B,[1]; 2.5 μM steroid vs 100 nM B,80%
same,inhibition of TAT induction by DXM,[1]; 2.5 μM steroid vs 100 nM DXM,80%
same,antagonism of TAT induction by B (in words),"[1]; 2.5 μM steroid, 100 nM B",shows antagonist effect on TAT induction; also recorded: antagonize TAT induction by corticosterone and decamethasone; also recorded: significantly inhibited
same,antagonism of TAT induction by DXM (in words),"[1]; 2.5 μM steroid, 100 nM DXM",shows antagonist effect on TAT induction; also recorded: antagonize TAT induction by corticosterone and decamethasone; also recorded: significantly inhibited
same,competition with (^3 H)-ALDO for MR / interaction with MR,"[2]; kidney cytosol, 5 nM (^3 H)-ALDO, 1.0 μM RU28362","unable to cross-react with uterus-PR or kidney-MR; also recorded: does not compete efficiently with (^3 H)-ALDO for MR, even when a thousand fold excess was added; also recorded: no ability to interact with MR nor PR"
same,change of binding to MR by 21-hydroxyl introduction,"[2]; vs 6,19-oxidopregnane skeleton, panel 2-C","does not improve the binding of the 6,19-oxidopregnane skeleton to MR"
same,Na^+ -retaining (MC) properties (in words),[3]; FIG. 3-C,almost devoid of MC properties; also recorded: then loosing activity at still higher doses
same,maximum Na^+ retention,"[3]; maximum of parabolic dose-response, at high doses",40%
same,TAT induction (in words),[4],neither 6OP nor 21OH-6OP evoke these responses; also recorded: Neither 6OP nor 21OH-6OP facilitate TAT induction
